According to the supplement of paper PMC10307832:

Key:
Experiment in all cases: relative viability (nuclei count vs DMSO), 5 days (fraction); higher = more cells survive
Gemcitabine + Pictilisib = compound: Nc1ccn([C@@H]2O[C@H](CO)[C@@H](O)C2(F)F)c(=O)n1 [Gemcitabine] + CS(=O)(=O)N1CCN(Cc2cc3nc(-c4cccc5[nH]ncc45)nc(N4CCOCC4)c3s2)CC1 [Pictilisib] (partner 1 µM)
Method in brief: (§1)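 Five library-drug doses in √10 steps were combined with a fixed anchor-drug dose, or a single drug was given alone, by pin tool to lung cancer cell lines in 1536-well plates the day after seeding. Nuclei were stained and counted after 5 days. Relative viability is the nuclei count in treated wells over that in vehicle wells, taken as the median of duplicate plates.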

Gemcitabine + Linsitinib = compound: Nc1ccn([C@@H]2O[C@H](CO)[C@@H](O)C2(F)F)c(=O)n1 [Gemcitabine] + C[C@]1(O)C[C@@H](c2nc(-c3ccc4ccc(-c5ccccc5)nc4c3)c3c(N)nccn32)C1 [Linsitinib] (partner 1 µM)
Method in brief: as §1

Gemcitabine + Alpelisib = compound: Nc1ccn([C@@H]2O[C@H](CO)[C@@H](O)C2(F)F)c(=O)n1 [Gemcitabine] + Cc1nc(NC(=O)N2CCC[C@H]2C(N)=O)sc1-c1ccnc(C(C)(C)C(F)(F)F)c1 [Alpelisib] (partner 2 µM)
Method in brief: as §1

Gemcitabine + Decitabine = compound: Nc1ccn([C@@H]2O[C@H](CO)[C@@H](O)C2(F)F)c(=O)n1 [Gemcitabine] + Nc1ncn([C@H]2C[C@H](O)[C@@H](CO)O2)c(=O)n1 [Decitabine] (partner 2 µM)
Method in brief: as §1

Cell Line	relative viability (Gemcitabine + Pictilisib; first compound 0.001 µM)	relative viability (Gemcitabine + Pictilisib; first compound 0.003162 µM)	relative viability (Gemcitabine + Pictilisib; first compound 0.01 µM)	relative viability (Gemcitabine + Pictilisib; first compound 0.03162 µM)	relative viability (Gemcitabine + Pictilisib; first compound 0.1 µM)	relative viability (Gemcitabine + Linsitinib; first compound 0.001 µM)	relative viability (Gemcitabine + Linsitinib; first compound 0.003162 µM)	relative viability (Gemcitabine + Linsitinib; first compound 0.01 µM)	relative viability (Gemcitabine + Linsitinib; first compound 0.03162 µM)	relative viability (Gemcitabine + Linsitinib; first compound 0.1 µM)	relative viability (Gemcitabine + Alpelisib; first compound 0.001 µM)	relative viability (Gemcitabine + Alpelisib; first compound 0.003162 µM)	relative viability (Gemcitabine + Alpelisib; first compound 0.01 µM)	relative viability (Gemcitabine + Alpelisib; first compound 0.03162 µM)	relative viability (Gemcitabine + Alpelisib; first compound 0.1 µM)	relative viability (Gemcitabine + Decitabine; first compound 0.001 µM)	relative viability (Gemcitabine + Decitabine; first compound 0.003162 µM)	relative viability (Gemcitabine + Decitabine; first compound 0.01 µM)	relative viability (Gemcitabine + Decitabine; first compound 0.03162 µM)	relative viability (Gemcitabine + Decitabine; first compound 0.1 µM)
NCI-H1993	0.855	0.804	0.651	0.695	0.647	0.689	0.723	0.622	0.599	0.579	0.706	0.642	0.528	0.528	0.491	0.549	0.524	0.564	0.44	0.356
NCI-H1437	0.409	0.457	0.258	0.118	0.0772	1.05	0.875	0.406	0.213	0.105	1.15	0.873	0.373	0.185	0.0956	0.572	0.553	0.515	0.364	0.269
UMC-11	0.942	0.908	0.821	0.714	0.228	0.993	1.03	0.963	0.956	0.382	1.15	0.931	0.885	0.792	0.239	0.57	0.417	0.518	0.37	0.311
201T	0.692	0.71	0.686	0.496	0.321	1.07	1.06	1.06	0.663	0.339	0.939	0.97	0.943	0.396	0.331	0.83	0.87	0.906	0.776	0.446
NCI-H358	0.338	0.27	0.188	0.194	0.161	0.653	0.327	0.186	0.23	0.157	0.64	0.236	0.154	0.175	0.151	0.188	0.171	0.151	0.102	0.105
LOU-NH91	0.496	0.475	0.486	0.389	0.34	0.922	0.686	0.547	0.311	0.281	0.726	0.515	0.457	0.316	0.263	0.801	0.732	0.756	0.562	0.41
HOP-62	0.78	0.464	0.315	0.0682	0.0859	1.07	0.815	0.129	0.0627	0.056	0.829	0.572	0.0893	0.0529	0.061	0.253	0.172	0.16	0.0888	0.121
NCI-H1915	1.02	0.949	0.909	0.857	0.229	1.12	1.09	1.11	0.92	0.442	1.02	1.11	1.04	0.711	0.308	0.255	0.262	0.254	0.258	0.182
NCI-H3122	0.648	0.595	0.553	0.265	0.159	1.04	0.957	0.892	0.262	0.174	0.824	0.774	0.627	0.234	0.165	0.361	0.396	0.389	0.175	0.146
NCI-H1651	0.501	0.54	0.409	0.136	0.0858	0.884	1.04	0.69	0.211	0.0842	0.923	0.967	0.889	0.159	0.0819	0.639	0.406	0.596	0.509	0.172
NCI-H838	0.476	0.501	0.468	0.346	0.141	1.05	1.12	0.933	0.328	0.14	1.05	1.17	1.14	0.557	0.169	0.442	0.485	0.365	0.281	0.187
NCI-H596	0.369	0.436	0.438	0.335	0.293	1.11	1.06	0.727	0.384	0.357	0.489	0.454	0.345	0.329	0.194	1.15	0.973	0.763	0.449	0.466
SK-LU-1	0.6	0.537	0.213	0.172	0.192	1.11	0.51	0.245	0.211	0.219	0.745	0.337	0.246	0.224	0.192	0.623	0.635	0.376	0.24	0.246
NCI-H441	0.521	0.343	0.196	0.109	0.126	0.513	0.339	0.102	0.11	0.128	0.602	0.327	0.138	0.149	0.12	0.208	0.212	0.17	0.167	0.127
NCI-H650	0.918	0.502	0.246	0.166	0.166	0.634	0.282	0.21	0.153	0.147	0.816	0.486	0.179	0.177	0.159	0.243	0.237	0.164	0.175	0.153
SK-MES-1	0.333	0.254	0.164	0.136	0.149	1.07	0.555	0.292	0.197	0.18	0.658	0.454	0.21	0.189	0.183	0.387	0.264	0.168	0.172	0.152

Cell Line	relative viability (Gemcitabine + Pictilisib; first compound 0.001 µM)	relative viability (Gemcitabine + Pictilisib; first compound 0.003162 µM)	relative viability (Gemcitabine + Pictilisib; first compound 0.01 µM)	relative viability (Gemcitabine + Pictilisib; first compound 0.03162 µM)	relative viability (Gemcitabine + Pictilisib; first compound 0.1 µM)	relative viability (Gemcitabine + Linsitinib; first compound 0.001 µM)	relative viability (Gemcitabine + Linsitinib; first compound 0.003162 µM)	relative viability (Gemcitabine + Linsitinib; first compound 0.01 µM)	relative viability (Gemcitabine + Linsitinib; first compound 0.03162 µM)	relative viability (Gemcitabine + Linsitinib; first compound 0.1 µM)	relative viability (Gemcitabine + Alpelisib; first compound 0.001 µM)	relative viability (Gemcitabine + Alpelisib; first compound 0.003162 µM)	relative viability (Gemcitabine + Alpelisib; first compound 0.01 µM)	relative viability (Gemcitabine + Alpelisib; first compound 0.03162 µM)	relative viability (Gemcitabine + Alpelisib; first compound 0.1 µM)	relative viability (Gemcitabine + Decitabine; first compound 0.001 µM)	relative viability (Gemcitabine + Decitabine; first compound 0.003162 µM)	relative viability (Gemcitabine + Decitabine; first compound 0.01 µM)	relative viability (Gemcitabine + Decitabine; first compound 0.03162 µM)	relative viability (Gemcitabine + Decitabine; first compound 0.1 µM)
NCI-H1792	0.238	0.226	0.111	0.0979	0.0699	0.561	0.363	0.131	0.109	0.0721	0.774	0.483	0.182	0.101	0.07	0.406	0.291	0.0943	0.0857	0.0713
NCI-H1355	0.409	0.343	0.202	0.127	0.124	0.816	0.606	0.221	0.123	0.129	0.756	0.569	0.135	0.156	0.116	0.338	0.294	0.25	0.198	0.191
SW 1573	0.543	0.272	0.178	0.086	0.0746	0.904	0.726	0.148	0.127	0.0847	0.749	0.592	0.295	0.0967	0.0846	0.529	0.158	0.113	0.0711	0.0511
A549	0.74	0.367	0.0384	0.0238	0.0155	0.705	0.356	0.0342	0.0143	0.0157	0.919	0.276	0.0341	0.0189	0.0253	0.292	0.274	0.0559	0.0266	0.0227
NCI-H2347	0.554	0.655	0.648	0.385	0.348	1	0.918	0.88	0.606	0.458	1.05	0.815	0.752	0.574	0.324	0.537	0.645	0.58	0.478	0.539
LCLC-97TM1	0.141	0.167	0.126	0.11	0.12	0.147	0.159	0.117	0.104	0.136	0.228	0.131	0.115	0.107	0.128	0.235	0.206	0.143	0.104	0.0854
EMC-BAC-2	0.615	0.58	0.402	0.196	0.184	0.797	0.822	0.751	0.191	0.154	0.726	0.768	0.627	0.12	0.0893	0.965	0.936	0.726	0.356	0.262
NCI-H1975	0.315	0.282	0.229	0.168	0.136	1.1	1.04	0.586	0.218	0.191	0.795	0.792	0.314	0.18	0.157	0.307	0.373	0.387	0.197	0.167
BEN	0.547	0.477	0.258	0.128	0.119	1.07	0.653	0.255	0.11	0.0904	1.09	0.659	0.253	0.117	0.0816	0.698	0.456	0.413	0.249	0.257
NCI-H23	0.446	0.328	0.143	0.146	0.104	0.447	0.226	0.123	0.11	0.118	0.57	0.242	0.108	0.129	0.115	0.284	0.237	0.155	0.157	0.136
NCI-H520	0.333	0.321	0.254	0.199	0.161	1.13	0.917	0.482	0.186	0.131	0.933	0.897	0.461	0.195	0.142	0.525	0.48	0.289	0.189	0.198
EPLC-272H	0.286	0.115	0.304	0.232	0.143	1.21	1.18	0.883	0.673	0.0949	1.04	0.809	0.541	0.304	0.1	0.389	0.353	0.305	0.224	0.0962
LCLC-103H	0.579	0.641	0.659	0.627	0.417	1.02	1.21	0.998	0.76	0.509	1	0.878	0.949	1	0.272	0.694	0.738	0.715	0.674	0.57
NCI-H2405	0.432	0.255	0.272	0.2	0.122	0.965	0.651	0.393	0.237	0.182	0.753	0.588	0.287	0.196	0.179	0.735	0.676	0.427	0.31	0.226
HCC-15	0.763	0.804	0.762	0.323	0.0914	0.981	0.893	0.848	0.217	0.0888	1.01	0.893	0.766	0.145	0.0627	0.622	0.67	0.612	0.226	0.107
PC-3 [JPC-3]	0.847	0.61	0.514	0.33	0.286	1.03	0.77	0.692	0.342	0.309	1.13	0.736	0.649	0.264	0.248	0.935	0.573	0.602	0.524	0.465
